From EP0888340B1, “4-(BENZO-1,3-DIOXOLYL)-PYRROLIDINE-3-CARBOXYLIC ACID DERIVATIVES AS ENDOTHELIN ANTAGONISTS” (Abbott Laboratories, priority 1996, dated 1997)
Where a name gives a salt, the structure may show the parent alone.

Target: T1, ETB Receptor (Sus scrofa, UniProt P35463)
T1 construct: Porcine cerebellum was homogenized in 25 volumes (w/v) of 10 mM Hepes (pH 7.4); from tissue; host or cells: porcine cerebellum membranes
T1 sequence (P35463 27-443): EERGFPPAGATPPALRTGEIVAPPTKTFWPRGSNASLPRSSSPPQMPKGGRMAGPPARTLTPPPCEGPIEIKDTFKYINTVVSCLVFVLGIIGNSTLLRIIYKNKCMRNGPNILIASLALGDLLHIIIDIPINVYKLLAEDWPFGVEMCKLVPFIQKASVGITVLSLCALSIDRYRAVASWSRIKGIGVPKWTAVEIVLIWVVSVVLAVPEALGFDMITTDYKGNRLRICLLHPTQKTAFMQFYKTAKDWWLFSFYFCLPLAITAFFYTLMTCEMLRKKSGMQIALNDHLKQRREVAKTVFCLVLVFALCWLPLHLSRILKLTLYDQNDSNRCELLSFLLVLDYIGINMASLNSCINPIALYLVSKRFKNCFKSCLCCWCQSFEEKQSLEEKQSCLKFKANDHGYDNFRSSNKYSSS
Assay: ETB receptor binding assay: [125I]ET-3 binding to membranes
Conditions: test compound 1 µM; displacement of 0.1 nM [125I]ET-3; Porcine cerebellum membranes; 4 hours at 25 °C
Method: Preparation of membranes from Porcine cerebellum:
Porcine cerebellum was homogenized in 25 volumes (w/v) of 10 mM Hepes (pH 7.4) containing 0.25 M sucrose and protease inhibitors (3 mM EDTA, 0.1 mM PMSF, and 5 µg/ml Pepstatin A) by 3-10 sec polytron at 13,500 rpm with 10 sec intervals. The mixture was centrifuged at 1000xg for 10 min. The supernatant was collected and centrifuged at 30,000xg for 30 min. The precipitate was resuspended in Buffer A (20 mM Tris, 100 mM NaCl, 10 mM MgCl2, pH 7.4) containing the aforementioned protease inhibitors and centrifuged again. The final pellet was resuspended in Buffer A containing protease inhibitors and stored at -80°C until used. Protein content was determined by the Bio-Rad dye-binding protein assay.
[^125I]ET-3 binding to membranes:
Binding assays were performed in 96-well microtiter plates pretreated with 0.1% BSA. Membranes prepared from cells were diluted ∼100 fold in Buffer B (20 mM Tris, 100 mM NaCl, 10 mM MgCl2, pH 7.4, with 0.2% BSA, 0.1 mM PMSF, 5 µg/mL Pepstatin A, 0.025% bacitracin, and 3 mM EDTA) to a final concentration of 0.2 mg/mL of protein. In competition studies, membranes (0.02 mg) were incubated with 0.1 nM of [^125I]ET-3 in Buffer B (final volume: 0.2 mL) in the presence of increasing concentrations of unlabeled ET-3 or a test compound for 4 hours at 25 °C. After incubation, unbound ligands were separated from bound ligands by a vacuum filtration method using glass-fiber filter strips in PHD cell harvesters (Cambridge Technology, Inc., MA), followed by washing the filter strips with saline (1 mL) for three times. Nonspecific binding was determined in the presence of 1 µM ET-1. The per cent inhibition at a concentration of 1 µM is shown. […]

SMILES	inhibition at 1 µM
COc1ccc([C@H]2[C@H](C(=O)O)[C@@H](c3ccc4c(c3)OCO4)CN2CC(=O)Nc2c(C)cc(C)cc2C)cc1 (racemic) [Example 1, trans,trans-2-(4-Methoxyphenyl)-4-(1,3-benzodioxol-5-yl)-1-((2,4,6-trimethyl)phenylaminocarbonylmethyl)-pyrrolidine-3-carboxylic acid]	96.4%
COc1ccc([C@H]2[C@H](C(=O)O)[C@@H](c3ccc4c(c3)OCO4)CN2CC(=O)Nc2c(C)cc(C)cc2C)cc1F (racemic) [Example 2, trans,trans-2-(3-Fluoro-4-methoxyphenyl)-4-(1,3-benzodioxol-5-yl)-1-((2,4,6-trimethyl)phenylaminocarbonylmethyl)-pyrrolidine-3-carboxylic acid]	91.5%
CCCOc1ccc([C@H]2[C@H](C(=O)O)[C@@H](c3ccc4c(c3)OCO4)CN2CC(=O)Nc2c(C)cc(C)cc2C)cc1 (racemic) [Example 3, trans,trans-2-(4-Propoxyphenyl)-4-(1,3-benzodioxol-5-yl)-1-((2,4,6-trimethyl)phenylaminocarbonylmethyl)-pyrrolidine-3-carboxylic acid]	82.1%
CCc1cccc(CC)c1NC(=O)CN1C[C@H](c2cc(OC)c3c(c2)OCO3)[C@@H](C(=O)O)[C@@H]1c1ccc(OC)c(F)c1 (racemic) [Example 8, trans,trans-2-(3-Fluoro-4-methoxyphenyl)-4-(7-methoxy-1,3-benzodioxol-5-yl)-1-((2,6-diethyl)phenylaminocarbonylmethyl)-pyrrolidine-3-carboxylic acid]	93.6%
COc1ccc([C@H]2[C@H](C(=O)O)[C@@H](c3ccc4c(c3)OCO4)CN2CC(=O)Nc2c(C)cccc2C)cc1 (racemic) [Example 11, trans,trans-2-(4-methoxyphenyl)-4-(1,3-benzodioxol-5-yl)-1-((2,6-dimethyl)phenylaminocarbonylmethyl)-pyrrolidine-3-carboxylic acid]	96%
CCCOc1ccc([C@H]2[C@H](C(=O)O)[C@@H](c3cc(OC)c4c(c3)OCO4)CN2CC(=O)Nc2c(CC)cccc2CC)cc1 (racemic) [Example 12, trans,trans-2-(4-propoxyphenyl)-4-(7-methoxy-1,3-benzodioxol-5-yl)-1-((2,6-diethyl)phenylaminocarbonylmethyl)-pyrrolidine-3-carboxylic acid]	96.7%
CCCOc1ccc([C@H]2[C@H](C(=O)O)[C@@H](c3cc(OC)c4c(c3)OCO4)CN2CC(=O)Nc2c(CC)cccc2CC)cc1OC [Example 13, trans,trans-2-(3-methoxy-4-propoxyphenyl)-4-(7-methoxy-1,3-benzodioxol-5-yl)-1-((2,6-diethyl)phenylaminocarbonylmethyl)-pyrrolidine-3-carboxylic acid]	91.3%
COc1ccc([C@H]2[C@H](C(=O)O)[C@@H](c3ccc4c(c3)OCO4)CN2CC(=O)Nc2c(Br)cccc2Br)cc1 [Example 14, trans,trans-2-(4-methoxyphenyl)-4-(1,3-benzodioxol-5-yl)-1-((2,6-dibromo)phenylaminocarbonylmethyl)-pyrrolidine-3-carboxylic acid]	96.6%
COc1ccc([C@H]2[C@H](C(=O)O)[C@@H](c3ccc4c(c3)OCO4)CN2CC(=O)Nc2c(OC)cccc2OC)cc1 [Example 16, trans,trans-2-(4-methoxyphenyl)-4-(1,3-benzodioxol-5-yl)-1-((2,6-dimethoxy)phenylaminocarbonylmethyl)-pyrrolidine-3-carboxylic acid]	92.3%
CCc1cc(Br)cc(CC)c1NC(=O)CN1C[C@H](c2ccc3c(c2)OCO3)[C@@H](C(=O)O)[C@@H]1c1ccc(OC)cc1 [Example 17, trans,trans-2-(4-methoxyphenyl)-4-(1,3-benzodioxol-5-yl)-1-((4-bromo-2,6-diethyl)phenylaminocarbonylmethyl)-pyrrolidine-3-carboxylic acid]	97.1%
COc1ccc([C@H]2[C@H](C(=O)O)[C@@H](c3ccc4c(c3)OCO4)CN2CC(=O)Nc2c(C(C)C)cccc2C(C)C)cc1 [Example 21, trans,trans-2-(4-methoxyphenyl)-4-(1,3-benzodioxol-5-yl)-1-((2,6-diisopropyl)phenylaminocarbonylmethyl)-pyrrolidine-3-carboxylic acid]	97.1%

Further lines, results first:

inhibition at 1 µM	SMILES
94%	CCc1cccc(CC)c1NC(=O)CN1C[C@H](c2ccc3c(c2)OCO3)[C@@H](C(=O)O)[C@@H]1c1ccc(OC)cc1 (racemic) [Example 4, trans,trans-2-(4-Methoxyphenyl)-4-(1,3-benzodioxol-5-yl)-1-((2,6-diethyl)phenylaminocarbonylmethyl)-pyrrolidine-3-carboxylic acid]
96.5%	CCCOc1ccc([C@H]2[C@H](C(=O)O)[C@@H](c3ccc4c(c3)OCO4)CN2CC(=O)Nc2c(CC)cccc2CC)cc1 (racemic) [Example 5, trans,trans-2-(4-Propoxyphenyl)-4-(1,3-benzodioxol-5-yl)-1-((2,6-diethyl)phenylaminocarbonylmethyl)-pyrrolidine-3-carboxylic acid]
92.9%	CCc1cccc(CC)c1NC(=O)CN1C[C@H](c2ccc3c(c2)OCO3)[C@@H](C(=O)O)[C@@H]1c1ccc(OC)c(F)c1 (racemic) [Example 6, trans,trans-2-(3-Fluoro-4-methoxyphenyl)-4-(1,3-benzodioxol-5-yl)-1-((2,6-diethyl)phenylaminocarbonylmethyl)-pyrrolidine-3-carboxylic acid]
94.5%	CCOc1ccc([C@H]2[C@H](C(=O)O)[C@@H](c3ccc4c(c3)OCO4)CN2CC(=O)Nc2c(CC)cccc2CC)cc1F (racemic) [Example 7, trans,trans-2-(3-Fluoro-4-ethoxyphenyl)-4-(1,3-benzodioxol-5-yl)-1-((2,6-diethyl)phenylaminocarbonylmethyl)-pyrrolidine-3-carboxylic acid]
94.8%	CCCOc1ccc([C@H]2[C@H](C(=O)O)[C@@H](c3ccc4c(c3)OCO4)CN2CC(=O)Nc2c(CC)cccc2CC)cc1OC (racemic) [Example 9, trans,trans-2-(3-methoxy-4-propoxyphenyl)-4-(1,3-benzodioxol-5-yl)-1-((2,6-diethyl)phenylaminocarbonylmethyl)-pyrrolidine-3-carboxylic acid]
95.2%	CCOc1ccc([C@H]2[C@H](C(=O)O)[C@@H](c3ccc4c(c3)OCO4)CN2CC(=O)Nc2c(CC)cccc2CC)cc1 (racemic) [Example 10, trans,trans-2-(4-ethoxyphenyl)-4-(1,3-benzodioxol-5-yl)-1-((2,6-diethyl)phenylaminocarbonylmethyl)-pyrrolidine-3-carboxylic acid]
93.4%	CCc1cccc(CC)c1NC(=O)CN1C[C@H](c2ccc3c(c2)OCO3)[C@@H](C(=O)O)[C@@H]1c1ccc(OC)cc1 [Example 15, [2R,3R,4S]2-(4-Methoxyphenyl)-4-(1,3-benzodioxol-5-yl)-1-(N-(2,6-diethyl)phenylaminocarbonylmethyl)-pyrrolidine-3-carboxylic acid, hydrochloride salt]
94.9%	CCc1cccc(C)c1NC(=O)CN1C[C@H](c2ccc3c(c2)OCO3)[C@@H](C(=O)O)[C@@H]1c1ccc(OC)cc1 [Example 18, trans,trans-2-(4-methoxyphenyl)-4-(1,3-benzodioxol-5-yl)-1-((2-ethyl-6-methyl)phenylaminocarbonylmethyl)-pyrrolidine-3-carboxylic acid]
94.9%	CCc1cc(CC)c(NC(=O)CN2C[C@H](c3ccc4c(c3)OCO4)[C@@H](C(=O)O)[C@@H]2c2ccc(OC)cc2)c(CC)c1 [Example 19, trans,trans-2-(4-methoxyphenyl)-4-(1,3-benzodioxol-5-yl)-1-((2,4,6-triethyl)phenylaminocarbonylmethyl)-pyrrolidine-3-carboxylic acid]
95.5%	CCCOc1ccc(C2C(C(=O)O)C(c3ccc4c(c3)OCO4)CN2CC(=O)Nc2c(CC)cccc2CC)cc1 [Example 20, [2R,3R,4S]2-(4-Propoxyphenyl)-4-(1,3-benzodioxol-5-yl)-1-(N-((2,6-diethyl)phenylaminocarbonylmethyl)-pyrrolidine-3-carboxylic acid]
